Test results as given in patent US9409891B2, “Solid forms of an antiviral compound” (Gilead Sciences, Inc., priority 2012, dated 2016).
≈ marks a conversion by molar mass, not a printed value. Entries after “also recorded” stand apart in the source; their conditions may differ.

Key:
Format in all cases: physicochemical
[1] = Stable form competition study in ACN; conditions: Forms I through V added to high concentration solution of amorphous Compound I in ACN, stirred overnight
Experimental: To further verify the stability of Form II, competitive crystallization was conducted by adding Forms I through V into a high concentration solution of amorphous Compound I in ACN. […] The mother liquor obtained, which was saturated in terms of Form II, was used in another test in which other forms (Forms I, III, IV and V) were added.

[2] = Seeding of Compound I solution in DIPE with Form VI; conditions: Compound I solution in DIPE seeded with Form VI; only Form II obtained
Experimental: In an attempt crystallize Form VI, the solution of Compound I in DIPE was seeded with Form VI. However, only Form II was obtained.

[3] = Hydrate screening, EtOH/water system; conditions: ethanol/water
Excerpt: When the organic component used in the solvent mixture forms solvate with Compound I, potential hydrates may not show up in the slurry screen, as shown in the hydrate screening using ethanol/water mixtures (Table 4). Form IX is a new form found in this study.

[4] = Hydrate screening, ACN/water system
[5] = Stability and hygroscopicity under ambient conditions
[6] = Follow-up stable form screening (Form II stirred in solvents at about 22° C.); conditions: for 2-Week Form / 24 h Form: Form II stirred at about 22° C.; for solubility: about 22° C., Form II start
Experimental: In the follow-up stable form screening experiments, the starting materials were Form II. The solids were stirring in the solvents list below at about 22° C. in 2 ml vials.

[7] = Form II stability in water at elevated temperature (slurry, XRPD)
Experimental: During formulation, Compound I may be wet granulated and dried at <50° C. A slurry of Form II in water was stirred at 48° C. (50° C. jacket) and was sampled periodically for XRPD analysis to determine Form I content.

[8] = water content 10%, water activity 0.510
[9] = water content 20%, water activity 0.654

CC1=CC[C@H](C(=O)N(c2cc(C#CC(C)(C)C)sc2C(=O)O)[C@H]2CC[C@](O)(CO[C@H]3CCOC3)CC2)CC1 (relative stereo) [Form II, 5-(3,3-dimethylbutyn-1-yl)-3-[(cis-4-hydroxy-4-{[(3S)-tetrahydrofuran-3-yloxy]methyl}cyclohexyl){[(1R)-4-methylcyclohex-3-en-1-yl]carbonyl}amino]thiophene-2-carboxylic acid]
Form detected after competitive crystallization [1]: the only detected form | Relative stability of forms [2]: more stable than Form VI | Form at 2 weeks [3, 8]: solution | Form at 90 hours [3, 8]: solution | Form at 2 weeks [3, 9]: solution | Form at 90 hours [3, 9]: solution | Form at 90 hours ([3]; water content 50%, water activity 0.806): III + small | Equivalent RH up to which Form II is stable ([4]; 22° C.): ≤ 86.3 % RH | Water activity up to which Form II is stable ([4]; 22° C.): up to 0.863 | Form at 2 weeks ([4]; water content 30%, water activity 0.896, 22° C.): VIII | Form at 2 weeks ([4]; water content 32%, water activity 0.9, 22° C.): VIII | Form at 2 weeks ([4]; water content 40%, water activity 0.914, 22° C.): VIII | Form at 2 weeks ([4]; water content 50%, water activity 0.926, 22° C.): VIII | Form at 24 h or 90 h ([4]; water content 50%, water activity 0.926, 90 h, 22° C.): II + small | Form at 2 weeks ([4]; water content 60%, water activity 0.936, 22° C.): VIII | Form at 24 h or 90 h ([4]; water content 60%, water activity 0.936, 90 h, 22° C.): VIII + small | Form at 2 weeks ([4]; water content 70%, water activity 0.943, 22° C.): VIII | Form at 2 weeks ([4]; water content 80%, water activity 0.949, 22° C.): II + VIII | Form at 24 h or 90 h ([4]; water content 80.9%, water activity 0.950, 24 h, 22° C.): I + II | Form at 24 h or 90 h ([4]; water content 100%, water activity 1, 24 h, 22° C.): I + II | Stability and hygroscopicity [5]: stable and non-hygroscopic | 2-Week Form ([6]; 2 Me-THF): solution | 24 h Form ([6]; 2 Me-THF): solution | solubility ([6]; 2 Me-THF, solution): >334 mg/mL | solubility ([6]; ACN/water (50/50)): 18 mg/mL (≈ 33.1 mM) | solubility ([6]; ACN): 6 mg/mL (≈ 11 mM) | solubility ([6]; Acetone): 241 mg/mL (≈ 443 mM) | 2-Week Form ([6]; DCM): solution | 24 h Form ([6]; DCM): solution | solubility ([6]; DCM, solution): >274 mg/mL | solubility ([6]; Ethyl Acetate): 124 mg/mL (≈ 228 mM) | solubility ([6]; Heptane): 0.05 mg/mL (≈ 0.092 mM) | solubility ([6]; Isopropyl Acetate): 59 mg/mL (≈ 109 mM) | solubility ([6]; MIBK): 116 mg/mL (≈ 213 mM) | 2-Week Form ([6]; MeOH): solution | 24 h Form ([6]; MeOH): solution | solubility ([6]; MeOH, solution): >321 mg/mL | solubility ([6]; Methyl t-butyl ether): 108 mg/mL (≈ 199 mM) | 2-Week Form ([6]; THF): solution | 24 h Form ([6]; THF): solution | solubility ([6]; THF, solution): >346 mg/mL | solubility ([6]; Toluene): 40 mg/mL (≈ 73.6 mM) | 24 h Form ([6]; Water): II + I | Stability of Form II in tested solvents (summary of Table 2) ([6]; stirred at about 22° C., up to 2 weeks): stable in most tested solvents except for alcohols, water, and MEK | Form conversion in water ([7]; Form II in water at 48° C.): slowly converted to Form I; also recorded: converts slowly to Form I | Form I content by XRPD ([7]; Form II slurry in water, 48° C. (50° C. jacket), 6 hour point): not detected | Form by XRPD ([7]; Form II slurry in water, 48° C., after 30 hours): Form I became the dominant form
